Where two headings read alike, the source gives them in different places.
What was measured:
[1] = tested on: phospho-akt (Thr308) in PC-3 cells; assay: Inhibition of phospho-akt (Thr308) in PC-3 cells, MSD phospho-akt 308 ELISA kit; type: cell-based; settings: Homo sapiens, 2 hours, no serum, read-out: EC50
Procedure, shortened: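 PC-3 cells (15,000/well, overnight in 10% FBS medium) treated 2 h with three-fold diluted compounds in serum-free medium; DMSO high and 5 μM wortmannin low controls. Lysates captured on BSA-blocked MSD plates overnight at 4 °C, then 1 h antibody detection at RT; phospho-Akt Thr308 read by MSD electrochemiluminescence.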

[2] = biological target: PDK1 (Homo sapiens (Human), UniProt O15530); assay: PDK1 kinase assay (coupled PDK1/AKT/FAM-crosstide assay, IMAP fluorescence polarization); type: biochemical
PDK1, sequence (O15530 51-359): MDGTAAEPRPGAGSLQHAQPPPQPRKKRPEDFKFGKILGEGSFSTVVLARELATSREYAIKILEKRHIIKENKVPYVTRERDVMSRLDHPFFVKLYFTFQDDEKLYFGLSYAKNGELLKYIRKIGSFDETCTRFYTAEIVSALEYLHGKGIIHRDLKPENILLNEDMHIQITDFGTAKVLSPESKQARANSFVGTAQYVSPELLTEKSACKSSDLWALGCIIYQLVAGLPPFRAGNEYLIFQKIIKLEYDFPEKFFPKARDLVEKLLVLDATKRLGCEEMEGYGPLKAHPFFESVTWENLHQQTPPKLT
Procedure, shortened: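 Inhibition is derived by 4-parameter fitting of ΔmP from an IMAP fluorescence polarization read of FAM-crosstide (100 nM) phosphorylation. The cascade ran 30 min at 25 °C with 40 μM ATP, using insect-cell GST-PDK1 51-359 (0.75 nM) driving 10 nM unphosphorylated AKT2 140-467-PIFtide fusion.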

[3] = inhibition of P308 Akt in PC-3 cells, MSD
[4] = inhibition of phospo-PDK1 in vitro
[5] = inhibition of P308 Akt in PC-3 cells using MSD

COc1ccnc(NCc2ccc(-c3ccc4ncnc(N)c4c3)s2)c1C(=O)NCc1ccc(F)c(F)c1 [Ex. 7.4, 2-({[5-(4-aminoquinazolin-6-yl)thiophen-2-yl]methyl}amino)-N-(3,4-difluorobenzyl)-4-methoxypyridine-3-carboxamide] gave an EC50 [1, 3] of over 10 µM and an IC50 [2, 4] of 0.1 to 1 µM.
COCCNc1ncnc2ccc(-c3ccc(CNc4ncccc4C(=O)N[C@@H](C)c4ccc(F)c(F)c4)s3)cc12 [Example 4.33] showed an EC50 [1, 3] of 1 to 10 µM and an IC50 [2, 4] of under 0.1 µM.
Compound Nc1ncnc2ccc(-c3ccc(CNc4ncc(NC(=O)C5CCCC5)cc4C(=O)NCc4ccc(F)c(F)c4)s3)cc12 [Example 8.5.5, 2-({[5-(4-aminoquinazolin-6-yl)thiophen-2-yl]methyl}amino)-5-[(cyclopentylcarbonyl)amino]-N-(3,4-difluorobenzyl) pyridine-3-carboxamide] has an EC50 ([1]; PC-3, 2 h, inhibition of P308 Akt in PC-3 cells, MSD) of 1 to 10 µM and an IC50 [2, 4] of 0.1 to 1 µM.
With N#Cc1cnc(NCc2ccc(-c3cnc(N)cn3)cc2)c(C(=O)NCc2cncc(F)c2)c1 [Example 312, 2-(4-(5-aminopyrazin-2-yl)benzylamino)-5-cyano-N-((5-fluoropyridin-3-yl)-methyl)nicotinamide] the EC50 [1, 5] was under 1 µM and the IC50 ([2]; inhibition of PDK1 in vitro) was under 0.1 µM.
For C[C@H](NC(=O)c1cc(C#N)cnc1NCc1ccc(-c2cnc3[nH]nc(CN)c3c2)cc1)c1ccc(F)cc1 [Example 152, (S)-2-(4-(3-(aminomethyl)-1H-pyrazolo[3,4-b]pyridin-5-yl)benzyl-amino)-5-cyano-N-(1-(4-fluorophenyl)ethyl)nicotinamide], the EC50 [1, 5] was 1 to 10 µM and the IC50 ([2]; inhibition of PDK1 in vitro) was under 0.1 µM.
O=C(NCC1CCCC1)c1cccnc1NCc1cccc(-c2c[nH]c3ncccc23)c1 [Example 1.8, 2-(3-(1H-pyrrolo[2,3-b]pyridin-3-yl)benzylamino)-N-(cyclopentylmethyl)nicotinamide] showed an EC50 [1, 3] of 1 to 10 µM and an IC50 [2, 4] of 0.1 to 1 µM.
NCCCc1nc(-c2ccc(CNc3ncc(C(F)(F)F)cc3C(=O)NCc3ccc(F)c(F)c3)cc2)cnc1N [Example 72, 2-{4-[5-Amino-6-(3-amino-propyl)-pyrazin-2-yl]-benzyl-amino}-N-(3,4-difluoro-benzyl)-5-trifluoromethyl-nicotinamide] showed an EC50 [1, 5] of 1 to 10 µM and an IC50 ([2]; inhibition of PDK1 in vitro) of under 0.1 µM.
C[C@H](NC(=O)c1cccnc1NCc1ccc(-c2ccc3nccn3c2)s1)c1ccc(F)cc1 [Example 2.7, (S)-N-(1-(4-fluorophenyl)ethyl)-2-(((5-(imidazo[1,2-a]pyridin-6-yl)thiophen-2-yl)methyl)amino)nicotinamide] was tested, and the EC50 [1, 3] was over 10 µM and the IC50 [2, 4] was 1 to 5 µM.
CC(C)(O)Cn1cc(-c2ccc(CNc3ncc(C(F)(F)F)cc3C(=O)Nc3ccc(F)cc3)cc2)c2c(N)ncnc21 [Example 405, 2-(4-(4-amino-7-(2-hydroxy-2-methylpropyl)-7H-pyrrolo[2,3-d]pyrimidin-5-yl)benzylamino)-N-(4-fluorophenyl)-5-(trifluoromethyl)nicotinamide] gave an EC50 [1, 5] of 1 to 10 µM and an IC50 ([2]; inhibition of PDK1 in vitro) of under 0.1 µM.
Nc1n[nH]c2ncc(-c3ccc(CNc4ncc(C(F)(F)F)cc4C(=O)Nc4ccc(F)cc4)cn3)cc12 [Example 57, 2-(((6-(3-amino-1H-pyrazolo[3,4-b]pyridin-5-yl)pyridin-3-yl)methyl)amino)-N-(4-fluorophenyl)-5-(trifluoromethyl)nicotinamide] showed an EC50 [1, 5] of under 1 µM and an IC50 ([2]; inhibition of PDK1 in vitro) of under 0.1 µM.
C[C@H](NC(=O)c1cc(C#N)cnc1NCc1ccc(-c2ccnc(N)n2)cc1)c1ccc(F)cc1 [Example 117, (S)-2-(4-(2-amino-pyrimidin-4-yl)benzylamino)-5-cyano-N-(1-(4-fluorophenyl)ethyl) nicotinamide] was tested, and the EC50 [1, 5] was 1 to 10 µM and the IC50 ([2]; inhibition of PDK1 in vitro) was over 5 µM.
O=C(NCc1ccc(F)c(F)c1)c1cccnc1NCc1ccc(-c2ccn3ncnc3c2)s1 [Example 8.14.4, N-(3,4-difluorobenzyl)-2-({[5-([1,2,4]triazolo [1,5-a]pyridin-7-yl)thiophen-2-yl]methyl}amino)pyridine-3-carboxamide] showed an EC50 [1, 3] of over 10 µM and an IC50 [2, 4] of 1 to 5 µM.
In the case of Nc1n[nH]c2ncc(-c3ccc(CNc4ncc(C(F)(F)F)cc4C(=O)NC4CCC(F)(F)CC4)cc3)cc12 [Example 284, 2-(4-(3-amino-1H-pyrazolo [3,4-b]pyridin-5-yl)benzylamino)-N-(4,4-difluorocyclohexyl)-5-(trifluoromethyl)nicotinamide], the EC50 [1, 5] is reported as 1 to 10 µM and the IC50 ([2]; inhibition of PDK1 in vitro) is reported as over 5 µM.
For C[C@H](NC(=O)c1nc(C#N)cnc1NCc1ccc(-c2cn(CCCN(C)C)c3ncnc(N)c23)cc1)c1ccc(F)c(F)c1 [Example 316, (S)-3-(4-(4-amino-7-(3-(dimethylamino)propyl)-7H-pyrrolo[2,3-d]pyrimidin-5-yl)benzylamino)-6-cyano-N-(1-(3,4-difluoro-phenyl)ethyl)pyrazine-2-carboxamide], the EC50 [1, 5] was 1 to 10 µM and the IC50 ([2]; inhibition of PDK1 in vitro) was under 0.1 µM.
With C[C@H](NC(=O)c1nc(C#N)cnc1N[C@H](C)c1ccc(-c2c[nH]c3ncnc(N)c23)cc1)c1ccc(F)c(F)c1 [Example 402, 3-((R)-1-(4-(4-amino-7H-pyrrolo[2,3-d]pyrimidin-5-yl)phenyl)ethylamino)-6-cyano-N-((S)-1-(3,4-difluorophenyl)ethyl)pyrazine-2-carboxamide] the EC50 [1, 5] was under 1 µM and the IC50 ([2]; inhibition of PDK1 in vitro) was under 0.1 µM.
Nc1ncnc2ccc(-c3ccc(CNc4ncc(Cl)cc4C(=O)NCc4ccc(F)c(F)c4)s3)cc12 [Example 8.12.3, 2-({[5-(4-aminoquinazolin-6-yl)thiophen-2-yl]methyl}amino)-5-chloro-N-(3,4-difluorobenzyl)pyridine-3-carboxamide] showed an EC50 [1, 3] of 1 to 10 µM and an IC50 [2, 4] of 1 to 5 µM.
Compound CC(C)Oc1cc(CNc2ncccc2C(=O)NCc2ccc(F)c(F)c2)cc(-c2c[nH]c3ncncc23)c1 [Example 5.8, N-(3,4-difluorobenzyl)-2-{[3-(propan-2-yloxy)-5-(7H-pyrrolo[2,3-d]pyrimidin-5-yl)benzyl]amino}pyridine-3-carboxamide] has an EC50 [1, 3] of 1 to 10 µM and an IC50 [2, 4] of under 0.1 µM.
Work on Nc1ncnc2ccc(-c3ccc(CNc4ncc(-c5ccccc5)nc4C(=O)NCc4ccc(F)c(F)c4)s3)cc12 [Ex. 10.3, 3-({[5-(4-aminoquinazolin-6-yl)thiophen-2-yl]methyl}amino)-N-(3,4-difluorobenzyl)-6-phenylpyrazine-2-carboxamide] yielded an EC50 [1, 3] of over 10 µM and an IC50 [2, 4] of over 5 µM.
O=C(NCc1ccc(F)c(F)c1)c1cccnc1NCc1ccc(-c2ccc3ncnc(NC4CC4)c3c2)s1 [Example 4.10, 2-(((5-(4-(cyclopropylamino)quinazolin-6-yl)thiophen-2-yl)methyl)amino)-N-(3,4-difluorobenzyl)nicotinamide] showed an EC50 [1, 3] of 1 to 10 µM and an IC50 [2, 4] of under 0.1 µM.
With CNC(=O)c1cc(S(=O)(=O)N2CCN(C)CC2)cnc1NCc1ccc(-c2ccc3ncnc(N)c3c2)s1 [Example 8.6.12, 2-(((5-(4-aminoquinazolin-6-yl)thiophen-2-yl)methyl)amino)-N-methyl-5-(4-methylpiperazin-1-ylsulfonyl)nicotinamide] the EC50 [1, 3] was over 10 µM and the IC50 [2, 4] was over 5 µM.
Work on C[C@H](NC(=O)c1cc(C#N)cnc1NCc1ccc(-c2cnc(N)c(-c3cccc(O)c3)n2)cc1)c1ccc(F)cc1 [Example 234, 2-{4-[5-Amino-6-(3-hydroxy-phenyl)-pyrazin-2-yl]-benzylamino}-5-cyano-N-[(S)-1-(4-fluoro-phenyl)-ethyl]-nicotinamide] yielded an EC50 ([1]; PC-3, 2 h, inhibition of P308 Akt in PC-3 cells using MSD) of 1 to 10 µM and an IC50 ([2]; inhibition of PDK1 in vitro) of under 0.1 µM.
